From patent US12257214B2, “Compositions and methods comprising deoxy-pentitols” (The Charlotte Mecklenburg Hospital Authority, priority 2021, dated 2025)

Key:
Format in all cases: cell-based
MG-63 = test: ATPlite cell IC50 screening, MG-63; conditions: Homo sapiens; MG-63, Osteosarcoma; ATPlite luminescence
Method: (§1) In brief, the cells were cultures in relevant medium and treated with a range of 9 doses of 2-deoxyribitol, from 10 mM, 5 mM, 2.5 mM, 1.25 mM, 0.62 mM, 0.31 mM, 0.08 mM, and 0.04 mM. Cells were diluted in the corresponding ATCC recommended medium and dispensed in a 384-well plate, depending on the cell line used, at a density of 100-6400 cells per well in 45 μl medium. For each used cell line the optimal cell density was used. The margins of the plate were filled with phosphate-buffered saline. Plated cells were incubated in a humidified atmosphere of 5% CO2 at 37° C. After 24 hours, 5 μl of compound dilution was added and plates were further incubated. At the end of experiment (t=end), 24 μl of ATPlite 1Step™ (PerkinElmer) solution was added to each well, and subsequently shaken for 2 minutes. After 10 minutes of incubation in the dark, the luminescence was recorded on an Envision multimode reader (PerkinElmer). IC50 was determined in comparison with the control samples. The cell lines tested and their corresponding disease model is indicated the left-most and middle columns, respectively. IC50 values are given in μM values in the right-most column. This screening was performed of a list of cancer cells to establish IC50 values for each of the cancer cell lines. This screening provides evidence for the potential of 2DR to treat many cancer types.

LS411N = test: ATPlite cell IC50 screening, LS411N; conditions: Homo sapiens, LS-411N, Cecum adenocarcinoma, ATPlite luminescence
Method: as §1

NCI-H460 = test: ATPlite cell IC50 screening, NCI-H460; conditions: Homo sapiens; NCI-H460, Large cell lung carcinoma; ATPlite luminescence
Method: as §1

A-549 = test: ATPlite cell IC50 screening, A-549; conditions: Homo sapiens, A549; A-549, Lung adenocarcinoma; ATPlite luminescence
Method: as §1

[1] = test system: breast cancer cell line MCF7; test: MCF7 cell culture, growth and death (FIG. 2); conditions: 3 day treatment
Method: From left-top-to-bottom: Control, 0.4 mM Drug, 2 mM rib, and 10 mM Drug; From right-top-to-bottom: 0.4 mM rib; 2 mM Drug; 10 mM rib; and 50 mM Drug.
However, this effect was not related to the enhanced expression of glycosylation of α-DG.

RL = test: ATPlite cell IC50 screening, RL; conditions: Homo sapiens, Diffuse large B-cell lymphoma, ATPlite luminescence
Method: as §1

RPMI-7951 = test: ATPlite cell IC50 screening, RPMI-7951; conditions: Homo sapiens; RPMI-7951, Melanoma; ATPlite luminescence
Method: as §1

RS4-11 = test: ATPlite cell IC50 screening, RS4-11; conditions: Homo sapiens; RS4-11, Adult B acute lymphoblastic leukemia; ATPlite luminescence
Method: as §1

MCF7 cells = test: Mammosphere formation (FIG. 4)
Method: Cells were also treated with Vitamin C (VitC) at a concentration of 50 μM for 5 days (5d) and then returned to normal medium (NM) for 6 days (d6), without (lower left panel) or with 2-deoxyribitol (Drug, lower right panel). The formation of cancer mammospheres, considered to be cancer stem cell-rich population, can be seen in culture without Drug treatment, and with Vitamin C treatment only. Drug treatment greatly reduces to eliminates the formation of cancer mammospheres.
To examine mammosphere formation, MCF7 cells were grown for 11 days with or without 2-deoxyribitol (drug) treatment (FIG. 4, top panels). In addition, MCF7 cells were treated with Vitamin C at the concentration of 50 μM for 5 days and then returned to normal medium (“NM”) for 6 days (FIG. 4, lower panels).

MOLT-4 = test: ATPlite cell IC50 screening, MOLT-4; conditions: Homo sapiens; MOLT-4, Adult T acute lymphoblastic leukemia; ATPlite luminescence
Method: as §1

[2] = test system: hepatocarcinoma HEPG2 cells; test: HEPG2 cell culture, growth and death (FIG. 6)
Method: The cells grow into large sheets (Control; top left panel), but remain tightly packed with limited cytoplasm. Cells were treated with 5 mM (top middle panel), 10 mM (top right panel), 20 mM (bottom left panel), or 40 mM (bottom right panel) 2-deoxyribitol (Drug). A dose-dependent decrease in cell density and increase in volume of cytoplasm is observed with the drug treatment.
2-deoxyribitol was also found to be effective at inhibiting the growth of and inducing cell death in the hepatocarcinoma cell HEPG2. […] HEPG2 cells have a clonal growth pattern with tightly-packed cells growing out to fill the surrounding empty space. […] Small numbers of cell death were also detected in the remaining narrow areas where the size of the cells was relatively smaller than those of surrounding cells.

SW48 = test: ATPlite cell IC50 screening, SW48; conditions: Homo sapiens; SW48, Colon adenocarcinoma; ATPlite luminescence
Method: as §1

DB = test: ATPlite cell IC50 screening, DB; conditions: Homo sapiens, Diffuse large B-cell lymphoma, ATPlite luminescence
Method: as §1

[3] = test system: normal human myoblasts (HSKM cells); test: Normal human myoblast culture (FIG. 7); conditions: HSKM cells, 2, 10, 20 mM, 3 days
Method: Three different doses were tested as labeled in the images: 2 mM (top right panel), 10 mM (bottom left panel), and 20 mM (bottom right panel) 2-deoxyribitol. No-drug control is shown in top left panel. Drug effect on growth of the cells is not clearly visible.
In contrast, 2-deoxyribitol produced unnoticeable changes in cell culture of normal human myoblasts or differentiated myotubes (FIG. 7), indicating its low toxicity potential to normal cell populations. In this study, normal human myoblasts (HSKM cells) were treated with 2-deoxyribitol (Drug) for 3 days.

A-172 = test: ATPlite cell IC50 screening, A-172; conditions: Homo sapiens; A-172, Glioblastoma; ATPlite luminescence
Method: as §1

MIA PaCa-2 = test: ATPlite cell IC50 screening, MIA PaCa-2; conditions: Homo sapiens; MIA PaCa-2, Pancreatic ductal adenocarcinoma; ATPlite luminescence
Method: as §1

C-33 A = test: ATPlite cell IC50 screening, C-33 A; conditions: Homo sapiens, Cervical squamous cell carcinoma, ATPlite luminescence
Method: as §1

HCT 116 = test: ATPlite cell IC50 screening, HCT 116; conditions: Homo sapiens; HCT 116, Colon carcinoma; ATPlite luminescence
Method: as §1

DU 145 = test: ATPlite cell IC50 screening, DU 145; conditions: Homo sapiens; DU 145, Prostate carcinoma; ATPlite luminescence
Method: as §1

COLO 205 = test: ATPlite cell IC50 screening, COLO 205; conditions: Homo sapiens; COLO 205, Colon adenocarcinoma; ATPlite luminescence
Method: as §1

`OCC[C@H](O)[C@H](O)CO` [2-deoxyribitol] showed an IC50 (MG-63) of 9.27 mM, an IC50 (LS411N) of 6.97 mM and an IC50 (NCI-H460) of 3.17 mM. The IC50 (A-549) was 9.97 mM, the “effect on cell growth, death and morphology” value ([1]; MCF7, 0.4-50 mM) was “dose-dependent inhibition in cell growth and increase in cell death” and the “cells survive compared to the control” value ([1]; MCF7, dose of 10 mM or higher) was “about 10%”. The IC50 (RL) was 3.4 mM, the IC50 (RPMI-7951) was 6.77 mM and the IC50 (RS4-11) was 3.06 mM. For the same compound, the “number of mammospheres after Vitamin C pre-treatment” value (MCF7 cells; MCF7, Vitamin C 50 μM 5 days, then 6 day treatment with 2-deoxyribitol) was “decreased dramatically”, the formation of mammospheres (MCF7 cells; MCF7 grown 11 days, 5 mM) was “no spheres were seen” and the IC50 (MOLT-4) was 4.94 mM. The “effect on number of cells and cytoplasm” value ([2]; HEPG2, 5-40 mM) was “decreased the number of cells with increasing amount of cytoplasm dose-dependently”, the “cell size relative to control cells” value ([2]; HEPG2, majority of cells, dose of 20 mM or higher) was “three or more times larger” and the IC50 (SW48) was 4.49 mM. The IC50 (DB) was 4.08 mM, the “cell density or myofiber formation versus control” value [3] was “No difference in cell density or myofiber formation” and the IC50 (A-172) was over 10 mM. For the same compound, the IC50 (MIA PaCa-2) was 4.87 mM, the IC50 (C-33 A) was 7.6 mM and the IC50 (HCT 116) was 5.73 mM. For the same compound, the IC50 (DU 145) was 4.87 mM and the IC50 (COLO 205) was 4.54 mM.
